Here are results for 24 molecules from patent US12686690B2, “Macrocyclic urea orexin receptor agonists” (Merck Sharp & Dohme LLC, priority 2020, dated 2026).

For this assay, the target named is T1, hOX2R (Homo sapiens, UniProt O43614).
T1 construct: expressed in transfected cells; host or cells: CHO cells (G418 selection)
T1 sequence (O43614 1-444): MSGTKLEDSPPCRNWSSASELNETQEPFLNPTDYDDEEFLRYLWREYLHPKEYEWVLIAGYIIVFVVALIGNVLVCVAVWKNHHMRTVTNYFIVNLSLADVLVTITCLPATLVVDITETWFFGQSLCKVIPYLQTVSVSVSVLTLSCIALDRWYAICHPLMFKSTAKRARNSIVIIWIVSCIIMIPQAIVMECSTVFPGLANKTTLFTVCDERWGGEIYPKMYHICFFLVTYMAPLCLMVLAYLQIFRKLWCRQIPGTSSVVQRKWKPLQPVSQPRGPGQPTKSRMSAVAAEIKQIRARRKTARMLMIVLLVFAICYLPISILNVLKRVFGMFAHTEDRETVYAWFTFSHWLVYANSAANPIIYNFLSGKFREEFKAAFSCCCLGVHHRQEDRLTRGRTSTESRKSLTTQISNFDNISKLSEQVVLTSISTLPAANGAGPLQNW
The assay can be described thus: hOX2R IPone assay (orexin receptor agonism). Particulars: IPone readout; for hOX2R_Ipone max %act: maximal activation; for EC50: orexin receptor agonist, read-out: hOX2R_IPone EC50. It counts as cell-based.

With `CCN1C(=O)NC(CC#N)CCCCCOc2nc(cn3ccnc23)-c2cc(ncc2OC)[C@H]1C` (stereo partly drawn) [Example 194, 2-((3R,E)-4-ethyl-25-methoxy-3-methyl-5-oxo-13-oxa-4,6-diaza-1(6,8)-imidazo[1,2-a]pyrazina-2(4,2)-pyridinacyclotridecaphane-7-yl)acetonitrile], the hOX2R_Ipone max %act was found to be 102.2% and the EC50 amounted to 1.2 nM.
The matching figures for `CCN1C(=O)NC(CC2CC2(F)F)CCCCCOc2nc(cn3ccnc23)-c2cc(ncc2OC)[C@H]1C` (single isomer, unassigned) [Example 59A]: 101.6% and 4.1 nM.
In the same order, the values of `CCN1Cc2cc(c(OC)cn2)-c2cn3ccnc3c(n2)OCCCC[C@H](CCC(F)(F)F)NC1=O` [Example 45, (16R)-13-ethyl-8-methoxy-16-(3,3,3-trifluoropropyl)-12,13,15,16,17,18,19,20-octahydro-14H-6,22-(azeno)-11,7-(metheno)imidazo[2,1-c][1,4,10,13,15]oxatetra-azacycloicosin-14-one] are 100.1% and 14.1 nM.
As to `CCN1C(=O)N[C@@H](CCC(F)(F)F)C/C=C/CCOc2nc(cc3cccnc23)-c2cc(ncc2OC)[C@H]1C` [Example 163, (3R,7S,E)-4-ethyl-25-methoxy-3-methyl-7-(3,3,3-trifluoropropyl)-13-oxa-4,6-diaza-1(6,8)-naphthyridina-2(4,2)-pyridinacyclotridecaphan-9-en-5-one], the hOX2R_Ipone max %act was determined as 104.4% and the EC50 stood at 10.9 nM.
Regarding `CCN1C(=O)NC(CC2CCCC2)CCCCCOc2nc(cn3ccnc23)-c2cc(ncc2OC)[C@H]1C` (single isomer, unassigned) [Example 65A], the hOX2R_Ipone max %act was 102.4% and the EC50 came out at 13.5 nM.
In the same order, the values of `CCN1C(=O)NCCOCCOc2nc(cn3ccnc23)-c2cccc(c2)[C@H]1C` [Example 2, (12R)-13-ethyl-12-methyl-12,13,16,17,19,20-hexahydro-6,22-(azeno)-11,7-(metheno)imidazo[1,2-o][1,18,4,6,15]dioxatriaza-cycloicosin-14(15H)-one] are 64.8% and 813 nM.
The matching figures for `CCN1C(=O)N[C@@H](CCC(F)(F)F)CCCCCOc2nc(cn3ccnc23)C2=C(C3CC3)N=C(O2)[C@H]1C` [Example 211, (9R,13R,E)-14-Cyclopropyl-12-ethyl-13-methyl-9-(3,3,3-trifluoropropyl)-3-oxa-10,12-diaza-1(5,2)-oxazola-2(6,8)-imidazo[1,2-a]pyrazinacyclotridecaphan-11-one]: 99.83% and 1.13 nM.
In the same order, the values of `CCN1C(=O)N[C@@H](CCC(F)(F)F)CCCCCOc2nc(c(C)n3ccnc23)-c2cc(cnc2OC)[C@H]1C` [Example 86, (12R,16R)-13-ethyl-8-methoxy-5,12-dimethyl-16-(3,3,3-trifluoropropyl)-12,13,16,17,18,19,20, 21-octahydro-6,23-(azeno)-11,7-(metheno)imidazo[2,1-c][1,4,9,13,15] oxatetraazacycloheni-cosin-14(15H)-one] are 99.3% and 3.5 nM.
In the case of `CCN1CCCOc2nc(cn3ccnc23)-c2cccc(c2)[C@@H](C)N(CC)C(=O)NCC1` [Example 15, (12R)-13,18-diethyl-12-methyl-12,13,16, 17,18,19,20,21-octahydro-6,23-(azeno)-11,7-(metheno) imidazo[2,1-c][1,4,13,15,18]oxa-tetraazacyclo-henicosin-14(15H)-one], the hOX2R_Ipone max %act was found to be 96.2% and the half-maximal effective concentration (EC50) is 1180 nM.
The matching figures for `CCN1C(=O)NCC(C(F)(F)F)N(C)CCOc2nc(cn3ccnc23)-c2cccc(c2)[C@H]1C` (single isomer, unassigned) [Example 25B]: 97.81% and 173 nM.
As to `CCN1C(=O)NCCCCOc2nc(cn3ccnc23)-c2cc(ncc2OC)[C@H]1C` [Example 178, (R,E)-4-ethyl-25-methoxy-3-methyl-11-oxa-4,6-diaza-1(6,8)-imidazo[1,2-a]pyrazina-2(4,2)-pyridinacycloun-decaphan-5-one], the hOX2R_Ipone max %act worked out at 88% and the 50% effective concentration (EC50) turned out to be 325 nM.
In the same order, the values of `CCN1C(=O)N[C@@H](CCC(F)(F)F)CCCCCOc2nc(cn3ccnc23)-c2cc(cc(C)n2)[C@H]1C` [Example 118B, (12R,16R)-13-ethyl-9,12-dimethyl-16-(3,3,3-trifluoropropyl)-12,13,16,17,18,19,20,21-octahydro-6,23-(azeno)-11,7-(metheno)imidazo[2,1-c][1,4,8,13,15]oxatetraazacyclohenicosin-14(15H)-one] are 99.7% and 2.6 nM.
For `CCN1C(=O)NC(CC2CCCC2)CCCCCOc2nc(cn3ccnc23)-c2cc(ncc2OC)[C@H]1C` (single isomer, unassigned) [Example 65B], the hOX2R_Ipone max %act was 101.9% and the half-maximal effective concentration (EC50) came out at 1 nM.
As to `CCN1C(=O)N[C@@H](C)/C=C/CC2(CCOCC2)COc2nc(cn3ccnc23)-c2cc(ncc2OC)[C@H]1C` [Example 222, (3′R,7'S,7′E,8′E)-4′-ethyl-5′-methoxy-3′,7′-dimethyl-2,3,5,6-tetrahydrospiro[pyran-4,11′-13-oxa-4,6-diaza-1(6,8)-imidazo[1,2-a]pyrazina-2(4,2)-pyridinacyclotridecaphanen]-8′-en-5′-one], the hOX2R_Ipone max %act is recorded as 61.55% and the 50% effective concentration (EC50) worked out at 760 nM.
In the same order, the values of `CCN1C(=O)N[C@@H](CCC(C)(F)F)COCCCOc2nc(cn3ncnc23)-c2cc(ncc2C)[C@H]1C` [Example 153, (3R,7S,E)-7-(3,3-difluorobutyl)-4-ethyl-25,3-dimethyl-9,13-dioxa-4,6-diaza-1(6,8)-[1,2,4]triazolo[1,5-a]pyrazina-2(4,2)-pyridinacyclotridecaphan-5-one] are 107.8% and 2.2 nM.
As for “(3R,E)-4-ethyl-25-methoxy-3- methyl-7-(2,2,3,3- tetrafluoropropyl)-13-oxa-4,6- diaza-1(6,8)-imidazo[1,2-a] pyrazina-2(4,2)-pyridina- cyclotridecaphan-5-one [Example 187]”, the hOX2R_Ipone max %act came to 104.1% and the EC50 was 0.62 nM.
For the molecule `CCN1C(=O)NC(CC(C)(F)F)CCCCCOc2cn3ccnc3c(n2)-c2cc(ncc2OC)C1C` [Example 151, (3R,7R,E)-7-(2,2-difluoropropyl)-4-ethyl-25-methoxy-3-methyl-13-oxa-4,6-diaza-1(6,8)-imidazo[1,2-a]pyrazina-2(4,2)-pyridinacyclotridecaphan-5-one], the hOX2R_Ipone max %act is 108.6% and the concentration for a half-maximal effect (EC50) is 0.51 nM.
The matching figures for `CCN1C(=O)NC(CCC(F)F)CCCCCOc2nc(cn3ncnc23)-c2cc(ncc2C)[C@H]1C` (stereo partly drawn) [Example 201, (3R,E)-7-(3,3-difluoropropyl)-4-ethyl-25,3-dimethyl-13-oxa-4,6-diaza-1(6,8)-[1,2,4]triazolo[1,5-a]pyrazina-2(4,2)-pyridina-cyclotridecaphan-5-one]: 101% and 3.68 nM.
As to `CCN1C(=O)N[C@@H](CCC(F)(F)F)CCCCOc2nc(cn3ccnc23)-c2ccnc(c2)[C@H]1C` [Example 29B, (12R,16R)-13-ethyl-12-methyl-16-(3,3,3-trifluoropropyl)-12,13,15,16,17, 18,19,20-octahydro-14H-6,22-(azeno)-11,7-(metheno) imidazo[2,1-c][1,4,10,13,15] oxatetraazacyclo-icosin-14-one], the hOX2R_Ipone max %act is 99.7% and the 50% effective concentration (EC50) came to 4.5 nM.
On to `CCN1C(=O)N[C@@H](C)C(F)(F)CCCCOc2nc(cn3ccnc23)-c2cc(ncc2OC)[C@H]1C` [Example 141, (3R,7S,E)-4-ethyl-8,8-difluoro-25-methoxy-3,7-dimethyl-13-oxa-4,6-diaza-1(6,8)-imidazo[1,2-a]pyrazina-2(4,2)-pyridinacyclotridecaphan-5-one], for which the hOX2R_Ipone max %act turned out to be 99.01% and the half-maximal effective concentration (EC50) is 8.35 nM.
As for `CCN1C(=O)NC(CC(C)C)CCCCCOc2nc(cn3ccnc23)-c2cc(ncc2OC)[C@H]1C` (single isomer, unassigned) [Example 53A], the hOX2R_Ipone max %act was 101.5% and the EC50 turned out to be 55.7 nM.
With `CCN1C(=O)NC(C2CC2)CCCCCOc2nc(cn3ccnc23)-c2cc(ncc2OC)[C@H]1C` (single isomer, unassigned) [Example 57B], the hOX2R_Ipone max %act amounted to 101.6% and the EC50 stood at 1.2 nM.
As for “(9R,13R,E)-14-Cyclopropyl-12-ethyl-13-methyl-9-(3,3,3-trifluoropropyl)-3-oxa-10,12-diaza-1(5,2)-thiazola-2(6,8)-imidazo[1,2-a]pyrazinacyclotridecaphan-11-one [Example 209]”, the hOX2R_Ipone max %act is 99.62% and the EC50 was found to be 1.1 nM.
The matching figures for `CCN1C(=O)N[C@@H](CCC(F)(F)F)CCCCOc2nc(cn3ccnc23)-c2cc(ncc2OC)C1C` (stereo in doubt) [Example 40, (12S,16R)-13-ethyl-8-methoxy-12-methyl-16-(3,3,3-trifluoropropyl)-12,13,15,16,17,18,19,20-octahydro-14H-6,22-(azeno)-11,7-(metheno)imidazo[2,1-c][1,4,10,13,15]oxatetra-azacycloicosin-14-one]: 101.2% and 1.2 nM.

Usually EC50 stands for the concentration giving half of the maximal effect.
